Measured values published in ChEMBL document CHEMBL1201862, “PubChem BioAssay data set” (2004).
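Cells were grown in 96-well plates and exposed to each compound for 48 hours at five concentrations; endpoints were interpolated linearly between bracketing concentrations, or set to the highest concentration if not reached. The concentration for 50% growth inhibition is given as GI50.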 Active and inactive are the calls of the source. Cut-off read from the data, not from the text of the source: active = GI50 up to about 1.1 µM and inactive = higher.

Legend:
Assay in all cases: NCI tumour cell line growth inhibition, 48 h
RPMI-8226 = test system: RPMI-8226
HT-29 = test system: HT-29
EKVX = test system: EKVX
SF-295 = test system: SF-295
HOP-92 = test system: HOP-92
COLO 205 = test system: COLO 205
MDA-MB-231 = test system: MDA-MB-231
CAKI-1 = test system: CAKI-1
HL-60 = test system: HL-60
CCRF-CEM = test system: CCRF-CEM
TK-10 = test system: TK-10
HCT-116 = test system: HCT-116
IGROV-1 = test system: IGROV-1
HOP-62 = test system: HOP-62
MCF7 = test system: MCF7
RXF 393 = test system: RXF 393
HCC 2998 = test system: HCC 2998
DU-145 = test system: DU-145
SK-OV-3 = test system: SK-OV-3
SK-MEL-5 = test system: SK-MEL-5
MDA-N = test system: MDA-N
NCI-H522 = test system: NCI-H522
HCT-15 = test system: HCT-15
Malme-3M = test system: Malme-3M
NCI-H460 = test system: NCI-H460
LOX IMVI = test system: LOX IMVI
UACC-257 = test system: UACC-257
BT-549 = test system: BT-549
OVCAR-5 = test system: OVCAR-5
NCI/ADR-RES = test system: NCI/ADR-RES
OVCAR-3 = test system: OVCAR-3
ACHN = test system: ACHN
UACC-62 = test system: UACC-62
MOLT-4 = test system: MOLT-4
OVCAR-8 = test system: OVCAR-8
NCI-H23 = test system: NCI-H23
SNB-19 = test system: SNB-19
Hs-578T = test system: Hs-578T
A549 = test system: A549
T47D = test system: T47D
NCI-H226 = test system: NCI-H226
M14 = test system: M14
MDA-MB-435 = test system: MDA-MB-435
SW-620 = test system: SW-620
A498 = test system: A498
SF-539 = test system: SF-539
PC-3 = test system: PC-3
U-251 = test system: U-251
SN12C = test system: SN12C
786-0 = test system: 786-0
OVCAR-4 = test system: OVCAR-4
K562 = test system: K562
SK-MEL-2 = test system: SK-MEL-2
KM12 = test system: KM12
SR = test system: SR
SF-268 = test system: SF-268
SK-MEL-28 = test system: SK-MEL-28
SNB-75 = test system: SNB-75
UO-31 = test system: UO-31

O=C1c2ccccc2CN1c1ccc(O)cc1
GI50 (RPMI-8226): > 100 µM (inactive) | GI50 (HT-29): > 100 µM (inactive) | GI50 (EKVX): > 100 µM (inactive) | GI50 (SF-295): > 100 µM (inactive) | GI50 (HOP-92): > 100 µM (inactive) | GI50 (COLO 205): > 100 µM (inactive) | GI50 (MDA-MB-231): > 100 µM (inactive) | GI50 (CAKI-1): > 100 µM (inactive) | GI50 (HL-60): > 100 µM (inactive) | GI50 (CCRF-CEM): > 100 µM (inactive) | GI50 (TK-10): > 100 µM (inactive) | GI50 (HCT-116): > 100 µM (inactive) | GI50 (IGROV-1): > 100 µM (inactive) | GI50 (HOP-62): > 100 µM (inactive) | GI50 (MCF7): > 100 µM (inactive) | GI50 (RXF 393): > 100 µM (inactive) | GI50 (HCC 2998): > 100 µM (inactive) | GI50 (DU-145): > 100 µM (inactive) | GI50 (SK-OV-3): > 100 µM (inactive) | GI50 (SK-MEL-5): > 100 µM (inactive) | GI50 (MDA-N): > 100 µM (inactive) | GI50 (NCI-H522): > 100 µM (inactive) | GI50 (HCT-15): > 100 µM | GI50 (Malme-3M): > 100 µM (inactive) | GI50 (NCI-H460): > 100 µM (inactive) | GI50 (LOX IMVI): > 100 µM (inactive) | GI50 (UACC-257): > 100 µM (inactive) | GI50 (BT-549): > 100 µM (inactive) | GI50 (OVCAR-5): > 100 µM (inactive) | GI50 (NCI/ADR-RES): > 100 µM (inactive) | GI50 (OVCAR-3): > 100 µM (inactive) | GI50 (ACHN): > 100 µM (inactive) | GI50 (UACC-62): > 100 µM (inactive) | GI50 (MOLT-4): > 100 µM (inactive) | GI50 (OVCAR-8): > 100 µM (inactive) | GI50 (NCI-H23): > 100 µM (inactive) | GI50 (SNB-19): > 100 µM (inactive) | GI50 (Hs-578T): > 100 µM (inactive) | GI50 (A549): > 100 µM (inactive) | GI50 (T47D): > 100 µM (inactive) | GI50 (NCI-H226): > 100 µM (inactive) | GI50 (M14): > 100 µM (inactive) | GI50 (MDA-MB-435): > 100 µM (inactive) | GI50 (SW-620): > 100 µM (inactive) | GI50 (A498): > 100 µM (inactive) | GI50 (SF-539): > 100 µM (inactive) | GI50 (PC-3): > 100 µM (inactive) | GI50 (U-251): > 100 µM (inactive) | GI50 (SN12C): > 100 µM (inactive) | GI50 (786-0): > 100 µM (inactive) | GI50 (OVCAR-4): > 100 µM (inactive) | GI50 (K562): > 100 µM (inactive) | GI50 (SK-MEL-2): > 100 µM (inactive) | GI50 (KM12): > 100 µM (inactive) | GI50 (SR): > 100 µM (inactive) | GI50 (SF-268): > 100 µM (inactive) | GI50 (SK-MEL-28): > 100 µM (inactive)

CCOC(=O)C1CCCCN1CCc1c[nH]c2ccccc12 (stereo unspecified)
GI50 (RPMI-8226): 84.7 µM (inactive) | GI50 (HT-29): 50.9 µM (inactive) | GI50 (EKVX): > 100 µM (inactive) | GI50 (SF-295): 66.2 µM (inactive) | GI50 (HOP-92): 16 µM (inactive) | GI50 (COLO 205): > 100 µM (inactive) | GI50 (MDA-MB-231): > 100 µM (inactive) | GI50 (CAKI-1): > 100 µM (inactive) | GI50 (CCRF-CEM): > 100 µM (inactive) | GI50 (TK-10): > 100 µM (inactive) | GI50 (HCT-116): 60 µM (inactive) | GI50 (IGROV-1): > 100 µM (inactive) | GI50 (HOP-62): > 100 µM (inactive) | GI50 (MCF7): > 100 µM (inactive) | GI50 (RXF 393): 80.9 µM (inactive) | GI50 (SNB-75): > 100 µM (inactive) | GI50 (HCC 2998): > 100 µM (inactive) | GI50 (DU-145): > 100 µM (inactive) | GI50 (SK-OV-3): > 100 µM (inactive) | GI50 (SK-MEL-5): 80.9 µM (inactive) | GI50 (MDA-N): > 100 µM (inactive) | GI50 (NCI-H522): 56.2 µM (inactive) | GI50 (HCT-15): 93.1 µM | GI50 (Malme-3M): > 100 µM (inactive) | GI50 (NCI-H460): 94.8 µM (inactive) | GI50 (LOX IMVI): > 100 µM (inactive) | GI50 (UACC-257): > 100 µM (inactive) | GI50 (BT-549): 75 µM (inactive) | GI50 (OVCAR-5): > 100 µM (inactive) | GI50 (NCI/ADR-RES): 73.1 µM (inactive) | GI50 (OVCAR-3): > 100 µM (inactive) | GI50 (ACHN): > 100 µM (inactive) | GI50 (UACC-62): > 100 µM (inactive) | GI50 (MOLT-4): 25.1 µM (inactive) | GI50 (OVCAR-8): > 100 µM (inactive) | GI50 (NCI-H23): 83.8 µM (inactive) | GI50 (SNB-19): > 100 µM (inactive) | GI50 (Hs-578T): > 100 µM (inactive) | GI50 (UO-31): 83.4 µM (inactive) | GI50 (A549): 74.6 µM (inactive) | GI50 (T47D): 32.5 µM (inactive) | GI50 (NCI-H226): 71.6 µM (inactive) | GI50 (M14): > 100 µM (inactive) | GI50 (MDA-MB-435): > 100 µM (inactive) | GI50 (SW-620): > 100 µM (inactive) | GI50 (A498): 44.1 µM (inactive) | GI50 (SF-539): > 100 µM (inactive) | GI50 (PC-3): > 100 µM (inactive) | GI50 (U-251): > 100 µM (inactive) | GI50 (SN12C): > 100 µM (inactive) | GI50 (786-0): > 100 µM (inactive) | GI50 (OVCAR-4): 73.5 µM (inactive) | GI50 (K562): 72.3 µM (inactive) | GI50 (SK-MEL-2): > 100 µM (inactive) | GI50 (KM12): > 100 µM (inactive) | GI50 (SR): > 100 µM (inactive) | GI50 (SF-268): > 100 µM (inactive) | GI50 (SK-MEL-28): > 100 µM (inactive)

OCCCCCCCCCCCOc1ccc(C2OCC3(CC=CCC3)CO2)cc1 (stereo unspecified)
GI50 (RPMI-8226): > 100 µM (inactive) | GI50 (HT-29): 3.85 µM (inactive) | GI50 (EKVX): 10.6 µM (inactive) | GI50 (SF-295): 17.6 µM (inactive) | GI50 (HOP-92): 16.9 µM (inactive) | GI50 (COLO 205): 22 µM (inactive) | GI50 (MDA-MB-231): 16.9 µM (inactive) | GI50 (CAKI-1): 17.4 µM (inactive) | GI50 (HL-60): 7.29 µM (inactive) | GI50 (CCRF-CEM): 11 µM (inactive) | GI50 (TK-10): 16.9 µM (inactive) | GI50 (HCT-116): 15.8 µM (inactive) | GI50 (IGROV-1): 16.1 µM (inactive) | GI50 (HOP-62): 14.4 µM (inactive) | GI50 (MCF7): 4.88 µM (inactive) | GI50 (SNB-75): 11.8 µM (inactive) | GI50 (HCC 2998): 17.9 µM (inactive) | GI50 (DU-145): 16.2 µM (inactive) | GI50 (SK-OV-3): 19.3 µM (inactive) | GI50 (SK-MEL-5): 16.4 µM (inactive) | GI50 (MDA-N): 15.9 µM (inactive) | GI50 (NCI-H522): 5.08 µM (inactive) | GI50 (HCT-15): 15.2 µM | GI50 (Malme-3M): 18.1 µM (inactive) | GI50 (NCI-H460): 16.9 µM (inactive) | GI50 (LOX IMVI): 11.7 µM (inactive) | GI50 (UACC-257): 16.8 µM (inactive) | GI50 (BT-549): 15 µM (inactive) | GI50 (OVCAR-5): 19.3 µM (inactive) | GI50 (NCI/ADR-RES): 14.7 µM (inactive) | GI50 (OVCAR-3): 19.1 µM (inactive) | GI50 (ACHN): 17.5 µM (inactive) | GI50 (UACC-62): 17.1 µM (inactive) | GI50 (MOLT-4): 34.2 µM (inactive) | GI50 (OVCAR-8): 17.2 µM (inactive) | GI50 (NCI-H23): 16.4 µM (inactive) | GI50 (SNB-19): 19.9 µM (inactive) | GI50 (Hs-578T): 7.87 µM (inactive) | GI50 (UO-31): 17.5 µM (inactive) | GI50 (A549): 17.1 µM (inactive) | GI50 (T47D): 13.3 µM (inactive) | GI50 (NCI-H226): 16.6 µM (inactive) | GI50 (M14): 11.1 µM (inactive) | GI50 (MDA-MB-435): 17.9 µM (inactive) | GI50 (SW-620): 16 µM (inactive) | GI50 (SF-539): 19.1 µM (inactive) | GI50 (PC-3): 4.07 µM (inactive) | GI50 (U-251): 13.9 µM (inactive) | GI50 (SN12C): 15 µM (inactive) | GI50 (786-0): 13.8 µM (inactive) | GI50 (OVCAR-4): 15.7 µM (inactive) | GI50 (SK-MEL-2): 38.1 µM (inactive) | GI50 (KM12): 13 µM (inactive) | GI50 (SR): 0.43 µM (active) | GI50 (SF-268): 17.9 µM (inactive) | GI50 (SK-MEL-28): 16.9 µM (inactive)
